Patent US20020019527A1 (priority 2000, published 2002)
Structures can show the parent of a compound that is named as a salt.

system: not listed separately; assay: Cardiovascular liability test; settings: not given
Protocol: Representative compounds of the instant invention were also tested for cardiovascular liability (see Journal of Cardiovascular Pharmacology, 607-618: 37 (2001)).

| Structure (SMILES) | electrophysiological profile (cardiovascular liability) |
| --- | --- |
| N#Cc1ccc(COC(c2ccc(C#N)c(-c3cccc4ccccc34)c2)c2cncs2)nc1 (stereo not shown) [Example 291, 6-(((4-cyano-3-(1-naphthyl)phenyl)(1,3-thiazol-5-yl)methoxy)methyl)nicotinonitrile] | improved electrophysiological profile |

biological target: T1, Farnesyltransferase (FTase) (Bos taurus, UniProt P29702+P49355); assay: Farnesyltransferase inhibition (scintillation proximity assay, [3H]-FPP / biotin-K-ras peptide); assay type: biochemical, bovine; settings: not given
T1 construct: precipitation from a beef brain homogenate; from tissue; host or cells: bovine brain
How it was run: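 Bovine brain FTase, partially purified by 30–50% saturated ammonium sulfate precipitation and DEAE Sepharose chromatography, separated from GGTase I/II. Scintillation proximity read-out of [3H]-FPP transfer to biotin-K-ras peptide, counted 1 h after quench. Compounds added from ethanol with 10-fold dilution into assay.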

T1 sequence (P49355 whole entry, one chain of several): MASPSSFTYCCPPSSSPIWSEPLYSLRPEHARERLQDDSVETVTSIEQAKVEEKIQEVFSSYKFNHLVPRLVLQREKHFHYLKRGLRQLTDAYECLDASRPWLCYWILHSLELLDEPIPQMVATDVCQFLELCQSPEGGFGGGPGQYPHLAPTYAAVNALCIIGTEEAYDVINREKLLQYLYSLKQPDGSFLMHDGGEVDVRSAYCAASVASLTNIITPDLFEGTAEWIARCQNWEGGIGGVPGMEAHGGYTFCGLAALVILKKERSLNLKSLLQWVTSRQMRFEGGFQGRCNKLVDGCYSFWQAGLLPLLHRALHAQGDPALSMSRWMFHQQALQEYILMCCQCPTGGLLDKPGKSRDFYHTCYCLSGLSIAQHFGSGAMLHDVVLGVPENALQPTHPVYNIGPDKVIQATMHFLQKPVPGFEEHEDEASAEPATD

| Structure (SMILES) | % Inhibition at 10^−6M [%] |
| --- | --- |
| Cc1ccccc1-c1cc(C(OCc2ccc(OC(F)(F)F)cc2)c2cncn2C)ccc1C#N.Cl (stereo not shown) [Example 180] | 95 |

same assay, conditions: compound at 10^−6 M; bovine FTase, 37° C., 30 minutes

| inhibition at 1 µM [%] | Structure (SMILES) |
| --- | --- |
| 97 | Cc1ccccc1-c1cc(C(OCc2ccc(Cl)cc2)c2cncn2C)ccc1C#N (stereo not shown) [Example 133, 5-(((4-chlorobenzyl)oxy)(1-methyl-1H-imidazol-5-yl)methyl)-2′-methyl(1,1′-biphenyl)-2-carbonitrile hydrochloride] |
| 93 | COc1cccc(COC(c2ccc(C#N)c(-c3ccccc3C)c2)c2cncn2C)c1 (stereo not shown) [Example 134, 5-(((3-methoxybenzyl)oxy)(1-methyl-1H-imidazol-5-yl)methyl)-2′-methyl(1,1′-biphenyl)-2-carbonitrile hydrochloride] |
| 100 | Cn1cncc1C(NCc1ccc(C#N)c(Br)c1)c1ccc(C#N)c(-c2cccc3ccccc23)c1 (stereo not shown) [Example 33, 4-(((3-bromo-4-cyanobenzyl)amino)(1-methyl-1H-imidazol-5-yl)methyl)-2-(1-naphthyl)benzonitrile dihydrochloride] |
| 100 | Cn1cncc1C(OCc1ccc(C#N)cc1)c1ccc(C#N)c(-c2cccc3cccnc23)c1 (stereo not shown) [Example 18, 4-(((4-cyanobenzyl)oxy)(1-methyl-1H-imidazol-5-yl)methyl)-2-(8-quinolinyl)benzonitrile dihydrochloride] |
| 100 | Cn1cncc1C(OCc1cccc(Cl)c1)c1ccc(C#N)c(-c2cccc3ccccc23)c1 (stereo not shown) [Example 273, 4-((1-methyl-1H-imidazol-5-yl)((3-chlorobenzyl)oxy)methyl)-2-(1-naphthyl)benzonitrile hydrochloride] |
| 92 | Cc1ccccc1-c1cc(C(OCc2ccc(OCc3ccccc3)cc2)c2cncn2C)ccc1C#N (stereo not shown) [Example 155, 5-(((4-(benzyloxy)benzyl)oxy)(1-methyl-1H-imidazol-5-yl)methyl)-2′-methyl(1,1′-biphenyl)-2-carbonitrile hydrochloride] |
| 75 | Cc1ccccc1-c1cc(C(OCc2csc(-c3ccc(C(F)(F)F)cc3)n2)c2cncn2C)ccc1C#N (stereo not shown) [Example 175, 2′-methyl-5-((1-methyl-1H-imidazol-5-yl)((2-(4-(trifluoromethyl)phenyl)-1,3-thiazol-4-yl)methoxy)methyl)(1,1′-biphenyl)-2-carbonitrile hydrochloride] |

| Structure (SMILES) | inhibition at 1 µM [%] |
| --- | --- |
| Cn1cncc1C(OCc1ccccc1)c1ccc(C#N)c(-c2ccccc2Cl)c1 (stereo not shown) [Example 10, 5-((benzyloxy)(1-methyl-1H-imidazol-5-yl)methyl)-2′-chloro(1,1′-biphenyl)-2-carbonitrile hydrochloride] | 94 |
